Data taken from patent US10471073B2, “Methods of reducing mammographic breast density and/or breast cancer risk” (Havah Therapeutics Pty Ltd., priority 2016, dated 2019).

How the values were obtained:
androgen receptor (AR) = assay: IHC of high MBD breast tissue explants with columnar cell change: androgen receptor; assay type: cell-based, human; details: for AR, percentage of cell staining: 24 hours, E 5 nM, T 10 nM, G 100 nM, A 25 ng/L [sic]; for effect on AR levels: tissue samples of both patients
Method: (§1) The samples are transported on ice for Prostate-specific antigen (PSA) determination. […] PSA is detectable in greater than 90% of the nipple fluid aspirations of normal women. […] This area was removed and transported on ice to the laboratory for explant culture. […] A representative piece of each tissue sample was immediately fixed in 4% formalin in phosphate-buffered saline (PBS) overnight at 4° C., followed by dehydration using an automatic tissue processor (Sakura Tissue-Tek VIP, USA) and paraffin wax embedding. A haematoxylin and eosin (H&E) stained section was used to assess tissue pathology. Additional consecutive sections were subjected to antigen retrieval to assess androgen receptor levels by immunohistochemistry (IHC). The remaining fresh tissue was cut into small (˜3×3×1 mm) pieces, and placed as triplicates on 1 cm^3 gelatin sponges (Spongostan; Johnson & Johnson, Skipton, UK) that were pre-soaked and then half submerged in treatment media containing 10% by volume dextran-coated charcoal stripped fetal calf serum (DCC-FCS) (SAFC biosciences, Kansas, USA) in 24-well tissue culture plates (BD Biosciences, NJ, USA). The tissues samples of both patients were cultured for 24 hours in a vehicle of 0.1% by volume of ethanol and subjected to the treatments set forth in Table 17.
(§2) Following 24 hours culturing in a 5% by volume CO2 enriched atmosphere at 37° C., the treated tissues samples were processed for IHC analyses as indicated below. Established IHC protocols were used to determine hormone receptor androgen receptor status in the 4 tissue samples prior to culture. Following microwave antigen retrieval in […] (pH6.5) tissue sections were incubated at 4° C. overnight with primary antibody for androgen receptor, estrogen receptor and PSA. Negative controls were generated by replacement of the primary antibodies with PBS. Tissues were dehydrated in ethanol and xylene and mounted with DPX (VWR International Ltd, England, UK). Following staining, digital images of stained sections were generated with a NanoZoomer scanner (Hamamatsu, Japan) to enable analyses of % positivity in untreated tissues, using Visual Image Analysis software (Video Pro, South Australia). A pathologist undertook histological evaluation with 25 years experience in breast pathology.

[1] = cited from earlier work
estrogen receptor (ER) = assay: IHC of high MBD breast tissue explants with columnar cell change: estrogen receptor; assay type: cell-based, human; details: 24 hours, E 5 nM, T 10 nM, G 100 nM, A 25 ng/L [sic]
Method: as §1, §2

[2] = test system: prostate specific antigen (PSA); assay: IHC of high MBD breast tissue explants with columnar cell change: PSA; assay type: cell-based, human; details: for PSA, percentage of cell staining: 24 hours, E 5 nM, T 10 nM, G 100 nM, A 25 ng/L [sic]; for effect on PSA levels: tissue samples of both patients
Method: as §1, §2

person with macromastia = assay: Macromastia: breast volume by water displacement; assay type: in vivo, human; details: tamoxifen and oral contraceptive therapy before the pellet
Method: The treatment consisted of testosterone 100 mg and anastrazole 3 mg compounded into a 4.5 mm pellet. The pellet was inserted into the subcutaneous fat of the lower abdominal wall.
Prior to treatment (Pre-treatment) the right and left breasts were separately placed in a calibrated bucket and the volume of displacement for each breast was measured. This was accomplished by submerging each breast until the breast was fully submerged but the water was not touching the chest wall. After one month of treatment the volume measurements were repeated using the same water displacement methodology. Fluid displacements were measured in mls.

pre-menopausal person = details: prior art; cited from earlier work

Row | Structure (SMILES) | AR, percentage of cell staining (androgen receptor (AR); Patient 1 explant, vehicle […]%) [%] | AR, percentage of cell staining (androgen receptor (AR); Patient 2 explant, vehicle 10%) [%] | effect on AR levels (androgen receptor (AR)) | fraction broken down in the liver as it is absorbed from the gut ([1]; oral delivery) | fraction broken down in the intestines by aromatase and other metabolic pathways ([1]; oral) | ER, percentage of cell staining (estrogen receptor (ER); Patient 1 explant, vehicle 90%) [%] | ER, percentage of cell staining (estrogen receptor (ER); Patient 2 explant, vehicle 75%) [%] | PSA, percentage of cell staining ([2]; Patient 1 explant, vehicle 20%) [%] | PSA, percentage of cell staining ([2]; Patient 2 explant, vehicle […]%) [%] | effect on PSA levels [2] | breast growth in macromastia (person with macromastia) | mammographic breast density (pre-menopausal person)
1 | C[C@]12CC[C@H]3[C@@H](CCC4=CC(=O)CC[C@@]43C)[C@@H]1CC[C@@H]2O [Testosterone, testosterone] | 35 | 25 | increased | 80-90% | approximately 85% | 50 | 45 | 65 | 45 | increased |  | 
2 | CC(C)(C#N)c1cc(Cn2cncn2)cc(C(C)(C)C#N)c1 [Anastrozole, 2,2′-[5-(1H-1,2,4-triazol-1-ylmethyl)-1,3-phenylene]bis(2-methylpropanenitrile)] |  |  |  |  |  |  |  | 35 | 25 | mild stimulatory effect |  | 
3 | CC/C(=C(\c1ccccc1)c1ccc(OCCN(C)C)cc1)c1ccccc1 [tamoxifen] |  |  |  |  |  |  |  |  |  |  | failed to cease the breast growth | reduce
4 | C[C@](O)(COc1ccc(C#N)cc1)C(=O)Nc1ccc(C#N)c(C(F)(F)F)c1 [GTx-024, (2S)-3-(4-cyanophenoxy)-N-[4-cyano-3-(trifluoromethyl)phenyl]-2-hydroxy-2-methylpropanamide] | 45 | 55 | increased |  |  | 45 | 25 | 50 | 55 | increased |  | 
5 | C[C@]12CC[C@@H]3c4ccc(O)cc4CC[C@H]3[C@@H]1CC[C@@H]2O [Estradiol, estradiol] | 5 | <5 |  |  |  | >95 | >95 | 5 | <5 |  |  | 
